# Test system: Pseudomonas aeruginosa
# Test: Antimicrobial activity against Pseudomonas aeruginosa ATCC 27853 assessed as zone of inhibition after 24 hrs by agar well-diffusion method
# Assay type: functional
row,Molecule,inhibition zone (IZ) [mm]
1,COc1ccc(C2CC(c3ccc(C)cc3)=NN2c2nc(-c3ccccc3)cs2)cc1 (configuration not stated),19
2,COc1ccc(C2=NN(c3nc(-c4ccccc4)cs3)C(c3ccc(OC)cc3)C2)cc1 (configuration not stated),18
3,COc1ccc(C2=NN(c3nc(-c4ccccc4)cs3)C(c3ccc(C)cc3)C2)cc1 (configuration not stated),17
4,Clc1ccc(C2C3CCc4ccccc4C3=NN2c2nc(-c3ccccc3)cs2)cc1 (configuration not stated),9
5,Cc1ccc(C2=NN(c3nc(-c4ccccc4)cs3)C(c3ccc(C)cc3)C2)cc1 (configuration not stated),16
6,c1ccc(C2=NN(c3nc(-c4ccccc4)cs3)C(c3cccs3)C2)cc1 (configuration not stated),19
7,COc1ccc(C2C3CCc4ccccc4C3=NN2c2nc(-c3ccccc3)cs2)cc1 (configuration not stated),9
8,c1ccc(-c2csc(N3N=C4c5ccccc5CCC4C3c3cccs3)n2)cc1 (configuration not stated),16
9,COc1ccc(C2CC(c3ccccc3)=NN2c2nc(-c3ccccc3)cs2)cc1 (configuration not stated),7
10,GENTAMICIN,21

# Test system: Staphylococcus aureus
# Test: Antimicrobial activity against Staphylococcus aureus ATCC 29213 assessed as zone of inhibition after 24 hrs by agar well-diffusion method
# Assay type: functional
row,Molecule,inhibition zone (IZ) [mm]
1,COc1ccc(C2=NN(c3nc(-c4ccccc4)cs3)C(c3ccc(C)cc3)C2)cc1 (configuration not stated),7
2,Cc1ccc(C2=NN(c3nc(-c4ccccc4)cs3)C(c3ccc(C)cc3)C2)cc1 (configuration not stated),7
3,c1ccc(C2=NN(c3nc(-c4ccccc4)cs3)C(c3cccs3)C2)cc1 (configuration not stated),9
4,COc1ccc(C2C3CCc4ccccc4C3=NN2c2nc(-c3ccccc3)cs2)cc1 (configuration not stated),8
5,COc1ccc(C2CC(c3ccccc3)=NN2c2nc(-c3ccccc3)cs2)cc1 (configuration not stated),6
6,GENTAMICIN,23

# Test system: Escherichia coli
# Test: Antimicrobial activity against Escherichia coli ATCC 25922 assessed as zone of inhibition after 24 hrs by agar well-diffusion method
# Assay type: functional
row,Molecule,inhibition zone (IZ) [mm]
1,COc1ccc(C2CC(c3ccc(C)cc3)=NN2c2nc(-c3ccccc3)cs2)cc1 (configuration not stated),7
2,COc1ccc(C2=NN(c3nc(-c4ccccc4)cs3)C(c3ccc(OC)cc3)C2)cc1 (configuration not stated),8
3,Clc1ccc(C2C3CCc4ccccc4C3=NN2c2nc(-c3ccccc3)cs2)cc1 (configuration not stated),7
4,Cc1ccc(C2=NN(c3nc(-c4ccccc4)cs3)C(c3ccc(C)cc3)C2)cc1 (configuration not stated),7
5,c1ccc(-c2csc(N3N=C4c5ccccc5CCC4C3c3cccs3)n2)cc1 (configuration not stated),8
6,GENTAMICIN,22

# — ChEMBL document CHEMBL2311410, “Facile regioselective synthesis of novel bioactive thiazolyl-pyrazoline derivatives via a three-component reaction and their antimicrobial activity” (2013)
